{"source": "patent US9226950B2", "about": "“Method and composition for treating diabetes mellitus” (National Dong Hwa University, priority 2013, dated 2016)", "key": {"[1]": {"test_system": "GLUT4", "experiment": "GLUT4 translocation assay in differentiated C2C12 myotubes", "format": "cell-based, mouse", "settings": "FIG. 3", "experimental": "Mouse muscle myoblast cells (C2C12) were obtained from the Food Industry Research and Development Institute (FIRDI, Hsinchu, Taiwan). The cells were grown and maintained in Dulbecco's Modified Eagle's Medium high glucose (DMEM-high glucose; GIBCO, CA, USA) containing 10% fetal bovine serum (FBS, GIBCO) and 1% penicillin streptomycin (GIBCO) in a cell culture incubator with 5% CO2 at 37° C. Prior to the following experiments, the cells were seeded and cultured at a density of 8×10^3 cells per well in 96-well plates or 2.5×10^5 cells per well in 6-well plates. […]\nThe C2C12 cells were fully differentiated with DMEM supplemented with 1% FBS and 1% horse serum for 4 days. […] The translocation changes of GLUT4 of the cells were detected. […] The HRP activity was determined by measuring the absorbance at 450 nm with a spectrophotometer (EnSpire 2300 Multilabel Reader, Perkin Elmer, Waltham, Mass., USA).\nTo detect the effect of tetracosanol on Glut4 translocation in S961-induced insulin resistance, the differentiated C2C12 cells were treated with or without 20 nM S961 (S961) followed by 185 μM of insulin (Ins), and treated with or without 100 μM of Tetracosanol (Tet) (n=4 in each group). […] At the cellular level, the ability of glucose uptake was determined by controlling the amount of the GLUT4 glucose transporter present in the plasma membrane. […]"}, "[2]": {"test_system": "S961-induced hyperglycemic mice (DM mice)", "experiment": "Oral glucose tolerance test (OGTT) in S961-induced hyperglycemic mice", "format": "in vivo, C57BL/6 mouse", "settings": "D-glucose 2 g/kg", "experimental": "Animal experiments were approved by the National Dong-Hwa University Animal Ethics Committee and were used according to the “Guide for the Care and Use of Laboratory Animals” of National Dong-Hwa University. The C57BL/6 mouse were obtained National Laboratory Animal Center (Taipei, Taiwan) and kept at controlled environmental conditions with room temperature (22±2° C.) and humidity (50±10%). The 12 hr light (0600 am-1800 pm) and 12 hr dark cycle was maintained throughout the study. Mice had free access to food and water and maintained on a standard laboratory diet (containing carbohydrates: 60%, proteins: 28%, lipids: 12%, and vitamins: 3%).\nThe 8 weeks old male C57 BL/6 mice after fasting 12 hr were used in this test. The mice were orally administered (p.o.) with tetracosanol (dissolved in PEG and EtOH, 25 mg/kg Bwt) or Metformin (100 mg/kg Bwt) for 3 hr. To investigate the effect of tetracosanol on the DM mice, the mice were intraperitoneally injected (i.p.) with S961 (50 nmol/kg Bwt) to induce hyperglycemia, prior to the administration of D-glucose (2 g/kg Bwt, p.o.). At approximately the 0, 30, 60, 90, and 120 min., the blood of each mouse was sampled by venipuncture from the tail vein for the determination of blood glucose. Blood glucose was immediately determined by the glucose oxidase method using glucose analyzer (Accu-Chek, Roche).\nTo investigate the glycemic control effect of tetracosanol on the hyperglycemic mice, hyperglycemic mice were induced by insulin receptor antagonist-S961. The mice of each group were treated with or without Metformin (Met) as positive control, or treated with or without tetracosanol (Tet). Then, all the groups were administered with D-glucose (2 g/kg Bwt) (n=6 in each group). The tetracosanol for glycemic control was confirmed by OGTT.\n8 weeks old male C57 BL/6 mice after fasting 12 hr were employed in this study. […] The blood glucose was determined by the glucose oxidase method using glucose analyzer (Accu-Chek, Roche). […]"}}, "data": [{"smiles": "CCCCCCCCCCCCCCCCCCCCCCCCO", "note": "[tetracosanol]", "values": [{"measurement": "insulin-dependent GLUT4 translocation", "setting": "[1]; insulin resistance C2C12 differentiated myotubes induced by 20 nM S961, insulin plus tetracosanol (100 μM)", "result": "provided the recovery ability"}, {"measurement": "insulin-dependent GLUT4 translocation", "setting": "[1]; normal C2C12 differentiated myotubes (Ins), 100 μM tetracosanol, 185 μM insulin", "result": "no effects"}, {"measurement": "blood glucose change in OGTT", "setting": "[2]; DM mice (S961), p.o., comparison with metformin, FIG. 6(a)", "result": "even better than metformin"}, {"measurement": "blood glucose change in OGTT", "setting": "[2]; tetracosanol 25 mg/kg Bwt p.o. versus Metformin 100 mg/kg Bwt, S961 50 nmol/kg i.p., FIG. 5(a)", "result": "profile similar to the treatment with metformin"}, {"measurement": "AUC of the blood glucose change in OGTT", "setting": "[2]; tetracosanol 25 mg/kg Bwt p.o., DM mice (S961) and normal mice (Con), FIG. 5(b)", "result": "good efficacy in glycemic control"}]}]}
